Results published in patent publication US20230272392A1, “METHODS OF TFEB ACTIVATION AND LYSOSOMAL BIOGENESIS AND COMPOSITIONS THEREFOR” (Casma Therapeutics, Inc., priority 2020, published 2023).

What was measured:
[1] = test system: U2OS cells expressing mKeima, FRB-p62, and FKBP-FIS1; test: Mitophagy efficiency, Keima fluorescence shift assay in U2OS cells; type: cell-based; conditions: dimerizer-induced mitophagy; FIG. 49
LC3 [2] = test: LC3 lipidation (LC3-I to LC3-II conversion), Western blot and cell images; type: cell-based; conditions: for LC3 lipidation (conversion of LC3 "I" form to "II" form): wild type (WT) and autophagy-deficient cells, FIGS. 1, 2, 3
Excerpt: (§1) For preparation of total cell lysates, cells were lysed in RIPA buffer (#9806, Cell Signaling Technology) supplemented with sodium dodecyl sulfate to 1% final concentration (SDS, Boston BioProducts) and protease inhibitor tablets (Complete EDTA-free, Roche). Lysates were homogenized by sequential passaging through Qiashredder columns (Qiagen), and protein levels were quantified by Lowry DC protein assay (Bio-Rad). Proteins were denatured in 6×Laemmli SDS loading buffer (Boston BioProducts) at 100° C. for 5 minutes.
(§2) Equivalent amounts of total proteins were separated on Tris-Glycine TGx SDS-PAGE gels (Bio-Rad) for Western blotting. Proteins were transferred to nitrocellulose using standard methods and membranes were blocked in 5% non-fat dry milk (Cell Signaling Technology) in TBS with 0.2% Tween-20 (Boston BioProducts). Primary antibodies were diluted in 5% bovine serum albumin (BSA, Cell Signaling Technology) in TBS with 0.2% Tween-20 and were incubated with membranes at 4° C. overnight. HRP-conjugated secondary antibodies were diluted in blocking solution (1:20,000, ThermoFisher) and incubated with membranes at room temperature for 1 hour. Western blots were developed using West PicoPLUS Super Signal ECL reagents (Pierce) and film (GEHealthcare).

GPNMB = GPNMB protein levels (TFEB target gene) upon chronic treatment, Western blot; type: cell-based; conditions: FNIP1/2 DKO cells reconstituted with FNIP1; FIG. 44D
Excerpt: as §2, with “For preparation of total cell lysates, cells were lysed in RIPA buffer (#9806, Cell Signaling Technology) supplemented with sodium dodecyl sulfate to 1% final concentration (SDS, Boston BioProducts) and protease inhibitor tablets (Complete EDTA-free, Roche). Lysates were homogenized by sequential passaging through Qiashredder columns (Qiagen), and protein levels were quantified by Lowry DC protein assay (Bio-Rad). Proteins were denatured in 6×Laemmli SDS loading buffer (Boston BioProducts) at 100° C. for 5 minutes. Equivalent” for “Equivalent”

LC3 [3] = test: LC3 puncta co-localized with LAMP1 in primary bone marrow-derived macrophages, wild-type vs ATG16L1 K490A knock-in; type: cell-based, mouse; conditions: FIG. 12
Experimental: For LC3 and LAMP1 staining in primary BMDMs, cells were plated on 18 mm coverslips. The next day, cells were treated as indicated and cells were fixed in ice cold methanol as described above. Cells were then blocked in PBS+5% BSA for 1 hour before addition of primary antibodies (anti-LC3A/B, CST #4108, 1:100; anti-LAMP1, BD #555798, 1:100) and diluted in blocking buffer overnight at 4° C. Cells were then washed and incubated with fluorescent secondary antibodies in blocking buffer for 1 hour at room temperature. Cells were washed in PBS incubated with DAPI and mounted on glass slides using Prolong anti-fade reagent (Life Technologies).
The K490A point mutation was introduced into C57/BL6 mice via direct zygote injection of CRISPR/Cas9 reagents. Briefly, a single stranded guide sequence was designed and synthesized along with a tracrRNA from Dhamacon. A repair donor single stranded DNA sequence was designed to introduce the K490A point mutation and mutate the PAM sequence to stop re-targeting of the Cas9 complex to already edited DNA. These reagents, along with recombinant Cas9, were injected into mouse zygotes. Pups born from these injections were genotyped via Transnetyx and heterozogous founders were bred with wild-type mice to obtain pure heterozygote animals. Further breeding yielded mice homozygous for the K490A mutation. […]

TFEB [4] = test: TFEB activation (Western blot / nuclear accumulation) in cell lines; type: cell-based; conditions: for TFEB activation under co-treatment with BafA1: FIG. 16
Excerpt: as §1, §2
(§3) For high content image acquisition, cells were plated in 96-well glass bottom, black wall plates (Greiner, #655892) or 384-well polystyrene, black-wall plates (Greiner, #781091) and grown overnight to 70% confluency. Treatments were performed as indicated. Cells were fixed for 10 minutes in either −20° C. methanol or 4% paraformaldehyde (Electron Microscopy Sciences). Cells were blocked and permeabilized in a solution containing 1:1 Odyssey blocking buffer (LiCor)/PBS (Invitrogen) with 0.1% Triton X-100 (Sigma) and 1% normal goat serum (Invitrogen) for 1 hour at room temperature. Primary antibodies were added overnight at 4° C. in blocking buffer described above. After washing plates with PBS using an EL-406 plate washer (BioTek), secondary Alexa-conjugated antibodies (Life Technologies) were diluted 1:1,000 in blocking solution and applied for 1 hour at room temperature. Cells were then washed again in PBS as described and imaged using an INCELL 6500 high-content imager (GE Healthcare). Images were analyzed using the GE InCarta software.

TFEB [5] = test: TFEB activation in ATG16L1 KO mouse macrophages reconstituted with ATG16L1 WD40 point mutants; type: cell-based; conditions: immortalized ATG16L1 KO mouse macrophages; FIG. 21
Experimental: For endogenous TFEB staining in mouse macrophages, cells were fixed in 3.7% formaldehyde for 15 minutes at room temperature, washed in PBS and permeabilized in 0.2% triton/PBS for 5 minutes. Cells were then processed as above for primary (anti-TFEB, Bethyl Laboratories, #A303-673A, 1:200) and secondary antibodies. Images were acquired using a Confocal Zeiss LSM 780 microscope (Carl Zeiss Ltd) equipped with a 40×oil immersion 1.40 numerical aperture (NA) objective using Zen software (Carl Zeiss Ltd). Analysis was performed using Image J. For nuclear cytosol quantification, the ratio of fluorescent intensity of TFEB within the DAPI was mask versus the cytosol of 30 cells across 2 independent experiments were measured.

TFE3 and FLCN = TFE3 and FLCN subcellular localization upon dimerizer-induced mitophagy in U2OS cells; type: cell-based; conditions: 25 nM, 3 hours; control KO, RB1CC1 KO, GABARAP triple KO U2OS cells; FIG. 50
Experimental: as §3

Compound	LC3 lipidation (conversion of LC3 "I" form to "II" form) (LC3 [2])	LC3 puncta formation co-localized with LAMP1, wild-type vs ATG16L1^K490A cells (LC3 [3])	TFEB activation under co-treatment with BafA1 (TFEB [4])	TFEB activation in macrophages with ATG16L1-F467A or ATG16L1-K490A (TFEB [5])	also measured
CO/C1=C\C(C)=C\[C@@H](C)[C@@H](O)[C@@H](C)C/C(C)=C/C=C/[C@H](OC)[C@@H]([C@@H](C)[C@@H](O)[C@H](C)[C@@]2(O)C[C@@H](O)[C@H](C)[C@@H](C(C)C)O2)OC1=O [BafA1, Bafilomycin A1]	–	–	–	–	Keima signal (mitophagy) under co-treatment [1]: blocked the Keima signal
COc1ccc(-c2ccc3c(N4CCOC[C@@H]4C)nc(N4CCOC[C@@H]4C)nc3n2)cc1CO [AZD8055]	able to regulate LC3 lipidation in WT but not autophagy-deficient cells	sensitivity to the ATG16L1^K490A mutation was not observed	did not prevent TFEB activation	activated TFEB irrespective of ATG16L1 status	LC3 lipidation: dependence on VPS34 inhibition and Bafilomycin A1 co-treatment (LC3 [2]; FIG. 4): induced conversion of LC3 in a manner sensitive to VPS34 inhibition and was potentiated with the vATPase inhibitor Bafilomycin A1 (BafA1); GPNMB protein levels (GPNMB): largely suppressed; TFEB activation (with GPNMB readout) (TFEB [4]; FIG. 44D): robust TFEB activation; TFEB nuclear accumulation / activation with SopF expression (TFEB [4]; SopF expression vs SopF negative controls, FIG. 15): did not impact TFEB activation
CO[C@H]1[C@@H](O)[C@H](C)C[C@H](C)/C=C/C=C/C=C(\C)[C@@H](c2c[nH]c3c(C)cccc23)C[C@@H]2CC[C@@H](C)[C@@](O)(O2)C(=O)C(=O)N2CCCC[C@H]2C(=O)O[C@H]([C@H](C)C[C@@H]2CC[C@@H](O)[C@H](OC)C2)C[C@H](O)[C@H](C)/C=C(\C)[C@H]1O [AP21967]	–	–	–	–	TFE3 nuclear localization and FLCN punctate structures (TFE3 and FLCN): seen in CTRL and RBICC1_KO (autophagy-deficient) cells but not in GABARAP_TKO cells
Cc1ccc(S(=O)(=O)Nc2ccccc2N2CCCCC2)s1 [MK6-83]	rapid conversion of LC3 from its cytoplasmic “I” form to the lipidated, punctate “II” form in both wild type (WT) and autophagy-deficient cells	–	prevented	–	–
CC1CC(C)(C)N(C(=O)CN2C(=O)c3ccccc3C2=O)c2ccccc21 (stereo not drawn) [ML-SA1]	rapid conversion of LC3 from its cytoplasmic “I” form to the lipidated, punctate “II” form in both wild type (WT) and autophagy-deficient cells	did not occur in ATG16L1^K490A cells	–	did not exhibit TFEB activation	–
